Test results published in US20160311795A1, “PYRIMIDINE DIAMINE DERIVATIVES AS INHIBITORS OF CYTOSOLIC HSP90” (CALASIA PHARMACEUTICALS, INC., priority 2012, published 2016).
Like-named read-outs stand apart in the source and are kept apart here.

Columns and labels:
human full length Hsp90 [1] = biological target: T1, human full length Hsp90 (Homo sapiens, UniProt P07900); assay: Fluorescence polarization Hsp90 competitive binding assay (GM-FITC displacement); settings: for inhibition at 10 µM: compound at 10 μM, read-out: Biochemical Potency % Inhibition at 10 μM; for inhibition at 1 µM: compound at 1 μM, read-out: Biochemical Potency % Inhibition at 1 μM
T1 construct: amino acid residues 1 to 732 of human Hsp90 (GenBank: BC121062.2); made in house; host or cells: E. coli BL21DE3 (pET15b)
Method: Hsp90 binding assays was performed generally according to the procedure described in J. Biomol. […] Hsp90 inhibitors were solubilized in DMSO at a stock concentration of 50 mM. […] Eighty five μl of binding assay buffer (20 mM HEPES, pH-7.5, 50 mM KCl, 5 mM MgCl2, 20 mM sodium molybdate, 0.01% NP-40, 2 mM DTT, and 0.1 mg/ml BSA) was added to the wells of a 96 well black plate placed on ice. […] Next, 10 μl either binding assay buffer alone (control) or human full length Hsp90 protein diluted in the binding assay buffer was added to achieve a final concentration of 50 nM. The plates were incubated at 4° C. on a plate shaker for 24 h. Two μl of 50× GM-FITC (9 nM final) in DMSO was added to all wells and the plate was incubated at ambient temperature for 1 h with shaking. Fluorescence polarization readings were taken in duplicate at excitation and emission wavelengths of 480 nm and 500 nm respectively. Specific binding was calculated by subtracting polarization values in the presence of Hsp90 from those in the absence of Hsp90. To calculate percent inhibition the specific binding values obtained for GA-FITC in the presence of compound were compared to values for GA-FITC in the absence of compound (DMSO only).

human full length Hsp90 [2] = biological target: T1, human full length Hsp90; assay: Determination of the Kd value of FITC-labeled geldanamycin for Hsp90 (fluorescence polarization); type: binding; settings: with or without 50 nM Hsp90
Method: Eighty five micro liters (μl) of a binding assay buffer (20 mM HEPES, pH 7.5, 50 mM KCl, 5 mM MgCl2, 20 mM sodium molybdate, 0.01% NP-40, 2 mM DTT, and 0.1 mg/mL BSA) were added to a 96 well black plate placed on ice. DMSO (3 μl) was added to the wells, followed by the addition of either 10 μl human full length HSP90 (50 nM final concentration) diluted in the binding assay buffer or 10 μl of the buffer alone. The plates were incubated at 4° C. on a plate shaker for 24 hours. Two μl of 50× GA-FITC titrate within a final range of 160 nM to 0.3125 nM in DMSO were added to all wells, followed by incubation at ambient temperature for 1 h with agitation. Fluorescence polarization readings were taken at excitation and emission wavelengths of 480 and 500 nm respectively. Measurements were performed in duplicate. Specific binding was calculated by subtracting polarization values in the presence of
Hsp90 from those in the absence of Hsp90. GA-FITC Kd values were calculated using Prism software (GraphPad Software, Inc., San Diego, Calif.).
A 10 point concentration response curve for binding of GM-FITC to Hsp90 was obtained. The concentration of GM-FITC used ranged from 160 nM to 0.3125 nM, which produced a saturable concentration response curve. […] The value of binding maximum (Bmax) was determined to be 188 nM.

[3] = Rat CNS exposure (plasma and CNS tissue concentration, LC-MS/MS); type: in vivo; settings: 10 mg/kg
Method: Test subjects (Sprague-Dawley rats) were housed in sterile vivarium with controlled temperature, humidity and 12-hour light-dark cycle (7:00 lights-on and 19:00 lights-off). Following procurement, rats were acclimated to the vivarium facility for 7 days prior to study day-1 with ad libitum access to both diet and water. Bedding was changed twice weekly. […] On study day-1 rats were administered vehicle or Hsp90 inhibitor formulation. Following administrations of test article formulation, blood and CNS tissue was collected at 6.5 h post-dosed by a necropsy procedure. In detail, CNS tissue was isolated from the Vehicle and dose groups, divided into 2 mid-sagittal sections, placed in tarred 1 mL micro-centrifuge tubes, weighed and immediately frozen on dry ice. Blood was isolated by a cardiac puncture procedure from the Vehicle and Hsp90 inhibitor dose groups. From these samples, plasma was isolated in plasma separator tubes containing ethylenediaminetetraacetic acid as the anticoagulant. HSP90 inhibitor concentrations in plasma and CNS tissue were determined using LC-MS/MS based methods following a 60% acetonitrile extraction.

[4] = Table 1, 50 nM Hsp90, 9 nM GM-FITC, read-out: Biochemical Potency IC50
[5] = Table II, binding affinities ranked by potency
[6] = Table II, binding affinities ranked by potency, read-out: IC50

| IC50 (human full length Hsp90 [1]; [4]) | Ki (human full length Hsp90 [1]; [5]) | IC50 (human full length Hsp90 [1]; [6]) | inhibition at 10 µM (human full length Hsp90 [1]) | inhibition at 1 µM (human full length Hsp90 [1]) | binding maximum (Bmax) (human full length Hsp90 [2]) | Kd (human full length Hsp90 [2]; 160 nM to 0.3125 nM probe) | Compound | partitioning CNS versus plasma [3] |
| --- | --- | --- | --- | --- | --- | --- | --- | --- |
| 311 nM | 78 nM | 311 nM |  |  |  |  | COc1c(C)cnc(CN(CCc2ccc(Cl)cc2)c2cc(Cl)nc(N)n2)c1C [SBI-0640608, 6-Chloro-N4-(4-chlorophenethyl)-N4-((4-methoxy-3,5-dimethylpyridin-2-yl)methyl)pyrimidine-2,4-diamine] |  |
|  | > 2500 nM | > 10000 nM | 17% |  |  |  | Cc1cc(C)cc(CNc2cc(C(F)(F)F)nc(N)n2)c1 [SBI-0633823] |  |
|  | 213 nM | 850 nM | 94% | 57% |  |  | COc1c(C)cnc(CN(C)c2cc(Cl)nc(N)n2)c1C [SBI-0639219, 6-Chloro-N4-((4-methoxy-3,5-dimethylpyridin-2-yl)methyl)-N4-methylpyrimidine-2,4-diamine] |  |
| ≥ 32000 nM | > 8000 nM | > 32000 nM |  |  |  |  | COc1c(C)cnc(CN(C(C)=O)c2cc(Cl)nc(N)n2)c1C [SBI-0640492] |  |
| 432 nM | 108 nM | 432 nM |  |  |  |  | 6-Chloro-N4-((4-methoxy-3,5-dimethylpyridin-2-yl)methyl)-N4-(3-methoxyphenethyl)pyrimidine-2,4-diamine [SBI-0640606] |  |
| 1100 nM | 275 nM | 1100 nM |  |  |  |  | CCCN(Cc1ncc(C)c(OC)c1C)c1cc(Cl)nc(N)n1 [SBI-0639350, 6-Chloro-N4-((4-methoxy-3,5-dimethylpyridin-2-yl)methyl)-N4-propylpyrimidine-2,4-diamine] |  |
| > 250000 nM | > 2500 nM | > 10000 nM |  |  |  |  | COc1cc(NCc2cc(OC)c(OC)c(OC)c2)nc(N)n1 [SBI-0633825] |  |
|  |  |  |  |  | 188 nM | 3.1 nM | CO[C@H]1/C=C\C=C(/C)C(=O)NC2=CC(=O)C(NCCCCCCNC(=S)Nc3ccc(-c4c5ccc(=O)cc-5oc5cc(O)ccc45)c(C(=O)O)c3)=C(C[C@@H](C)C[C@H](OC)[C@H](O)[C@@H](C)/C=C(\C)[C@@H]1OC(N)=O)C2=O [GA-FITC] |  |
| 719 nM | 180 nM | 720 nM |  |  |  |  | CCCCN(Cc1ncc(C)c(OC)c1C)c1cc(Cl)nc(N)n1 [SBI-0639354, N4-butyl-6-chloro-N4-((4-methoxy-3,5-dimethylpyridin-2-yl)methyl)pyrimidine-2,4-diamine] |  |
| 368 nM | 92 nM | 368 nM |  |  |  |  | COc1c(C)cnc(CN(CCc2ccc3c(c2)OCO3)c2cc(Cl)nc(N)n2)c1C [SBI-0640607, N4-(2-(Benzo[d][1,3]dioxol-5-yl)ethyl)-6-chloro-N4-((4-methoxy-3,5-dimethylpyridin-2-yl)methyl)pyrimidine-2,4-diamine] |  |
|  | > 2500 nM | > 10000 nM | 10% | 5% |  |  | COc1cccc2c1ccn2-c1cc(N)c(C(N)=O)c(NC2CCOCC2)c1 [SBI-0639186] |  |
| > 250000 nM | > 2500 nM | > 10000 nM |  |  |  |  | COc1ccc(CNc2ccnc(N)n2)cc1OC [SBI-0634912] |  |
| 1140 nM | 285 nM | 1140 nM |  |  |  |  | CCN(Cc1ncc(C)c(OC)c1C)c1cc(Cl)nc(N)n1 [SBI-0640612, 6-Chloro-N4-ethyl-N4-((4-methoxy-3,5-dimethylpyridin-2-yl)methyl)pyrimidine-2,4-diamine] |  |
|  | 368 nM | 1470 nM | 94% | 44% |  |  | Cc1cnc(CNc2cc(Cl)nc(N)n2)c(C)c1Br [SBI-0639218, N4-((4-Bromo-3,5-dimethylpyridin-2-yl)methyl)-6-chloropyrimidine-2,4-diamine] |  |
| 97 nM | 24 nM | 97 nM |  |  |  |  | COc1c(C)cnc(CN(CCc2cccc(Br)c2)c2cc(Cl)nc(N)n2)c1C [SBI-0640613, N4-(3-Bromophenethyl)-6-chloro-N4-((4-methoxy-3,5-dimethylpyridin-2-yl)methyl)pyrimidine-2,4-diamine] |  |
| ≥ 32000 nM | > 8000 nM | > 32000 nM |  |  |  |  | COc1c(C)cnc(CN(c2cc(Cl)nc(N)n2)C(C)C)c1C [SBI-0639352, 6-Chloro-N4-isopropyl-N4-((4-methoxy-3,5-dimethylpyridin-2-yl)methyl)pyrimidine-2,4-diamine] |  |
| 30000 nM | 7500 nM | 30000 nM |  |  |  |  | CCCC(=O)N(Cc1ncc(C)c(OC)c1C)c1cc(Cl)nc(N)n1 [SBI-0640645] |  |
| 2870 nM | 718 nM | 2870 nM |  |  |  |  | C=CCN(Cc1ncc(C)c(OC)c1C)c1cc(Cl)nc(N)n1 [SBI-0639355, N4-Allyl-6-chloro-N4-((4-methoxy-3,5-dimethylpyridin-2-yl)methyl)pyrimidine-2,4-diamine] |  |
|  | 110 nM | 440 nM | 98% | 66% |  |  | Cc1cnc(CNc2cc(Cl)nc(N)n2)c(C)c1I [SBI-0639220, 6-Chloro-N4-((4-iodo-3,5-dimethylpyridin-2-yl)methyl)pyrimidine-2,4-diamine] |  |
|  | > 2500 nM | > 10000 nM | 3% |  |  |  | CCOc1ccc(-c2ccc(CNc3cc(Cl)nc(N)n3)cc2)cc1 [SBI-0638969] |  |
| 194 nM | 49 nM | 194 nM |  |  |  |  | Cc1cnc(CN(CCc2ccc(Cl)cc2)c2cc(Cl)nc(N)n2)c(C)c1Cl [SBI-0640610, 6-Chloro-N4-((4-chloro-3,5-dimethylpyridin-2-yl)methyl)-N4-(4-chlorophenethyl)pyrimidine-2,4-diamine] |  |
|  | 300 nM | 1200 nM | 93% | 47% |  |  | Cc1cnc(CNc2cc(Cl)nc(N)n2)c(C)c1Cl [SBI-0639217, 6-Chloro-N4-((4-chloro-3,5-dimethylpyridin-2-yl)methyl)pyrimidine-2,4-diamine] |  |
|  | > 2500 nM | > 10000 nM | 4% |  |  |  | COc1ccc(CNc2cc(C(F)(F)F)nc(N)n2)c(OC)c1OC [SBI-0630180] |  |
| 1690 nM | 423 nM | 1690 nM |  |  |  |  | COc1c(C)cnc(CN(CCN2CCOCC2)c2cc(Cl)nc(N)n2)c1C [SBI-0640611, 6-Chloro-N4-((4-methoxy-3,5-dimethylpyridin-2-yl)methyl)-N4-(2-morpholinoethyl)pyrimidine-2,4-diamine] |  |
| 2210 nM | 553 nM | 2210 nM |  |  |  |  | COc1c(C)cnc(CN(Cc2ccccc2)c2cc(Cl)nc(N)n2)c1C [SBI-0639351, N4-Benzyl-6-chloro-N4-((4-methoxy-3,5-dimethylpyridin-2-yl)methyl)pyrimidine-2,4-diamine] |  |
|  |  |  |  |  |  |  | Cc1cn(-c2cc(F)c(C(N)=O)c(N[C@H]3CCOC3)c2)c2c1C(=O)CC(C)(C)C2 [SNX-0723, reference compound] | selectively partitions into the CNS compartment compared to plasma |
